Consider eight compounds from PubChem BioAssay (NCI).

Some test systems named below: PC-3 prostate; CAKI-1 renal; HS 578T breast; HT29 colon; DU-145 prostate; TK-10 renal; HCT-116 colon; A498 renal; M14 melanoma; A549 NSCLC.
Holding throughout (test): growth of human tumour cells (NCI), 48 h

SMILES strings stand for the structures. “And” between values parts separate entries of the source, which are not always exact repeats. Equal values may be shown once.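 Results reflect a 48-hour exposure of cells in 96-well plates to compound at five concentrations. Abbreviation: GI50, concentration required for 50% inhibition of growth. At the TGI there is no net growth.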

As for `C/C=C(\C)C(=O)O[C@@H]1C=CC(=O)O[C@H]1CNC(=O)[C@H](C)O`, the GI50 in the test with PC-3 prostate was 27.3 µM; in the test with CAKI-1 renal, 17.8 µM; in the test with HS 578T breast, 16.7 µM; in the test on HT29 colon it was 17.7 µM; in the test on DU-145 prostate, 22.6 µM; in the test on TK-10 renal, 18.9 µM. Further, the GI50 in the test with HCT-116 colon was 9.48 µM; in the test on A498 renal, 21.2 µM; with M14 melanoma it was 18.6 µM; in the test with A549 NSCLC it was 30.5 µM. For the same compound, the TGI was greater than 92.2 µM in the test on PC-3 prostate; 36.5 µM in the test on CAKI-1 renal; 53.8 µM with HS 578T breast; 40.6 µM in the test with HT29 colon; 69.1 µM in the test on DU-145 prostate; 43.2 µM with TK-10 renal. For the same compound, the TGI was 24.2 µM in the test on HCT-116 colon, 53 µM in the test on A498 renal, 49.1 µM with M14 melanoma and greater than 88.4 µM in the test on A549 NSCLC.
Consider `c1ccc(/C(=N\Nc2nc3ccccc3s2)c2ccccn2)cc1`, for which the TGI with PC-3 prostate was greater than 53.2 µM; in the test on CAKI-1 renal, greater than 100 µM; in the test with HS 578T breast it was greater than 88.9 µM; in the test with HT29 colon, 47.1 µM; with DU-145 prostate, 30 µM; with TK-10 renal, 37.5 µM. Besides, the TGI with HCT-116 colon is 9.16 µM; in the test on A498 renal, 70.1 µM; in the test on M14 melanoma, 22.6 µM; in the test with A549 NSCLC, greater than 100 µM.
Consider `COc1ccc(-c2nnc(Nc3nc(O)c(C4=c5cc(Br)ccc5=NC4=O)s3)o2)cc1`, for which the GI50 with PC-3 prostate was 18.1 µM; in the test on CAKI-1 renal it was 17.2 µM; in the test on HS 578T breast, 6.92 µM; with HT29 colon, 35.4 µM; in the test with DU-145 prostate it was 16.9 µM; in the test on TK-10 renal it was 18.9 µM. The GI50 was 25.5 µM in the test on HCT-116 colon, 12.4 µM in the test on A498 renal, 20.1 µM with M14 melanoma and 26.8 µM in the test on A549 NSCLC. Moreover, the TGI with PC-3 prostate is greater than 76.7 µM; in the test on CAKI-1 renal, 50.1 µM; in the test with HS 578T breast, 22.5 µM; in the test on HT29 colon, greater than 100 µM; with DU-145 prostate, greater than 56.3 µM; with TK-10 renal, 51 µM. Besides, the TGI is 97.7 µM with HCT-116 colon, 46.4 µM in the test on A498 renal, 63.7 µM with M14 melanoma and greater than 100 µM in the test on A549 NSCLC.
With `CCN(CC)CCCNc1cc(OC)c(OC)c2cccnc12`, the GI50 is 16.1 µM in the test on PC-3 prostate; 2.15 µM in the test on CAKI-1 renal; 7.3 µM in the test on HS 578T breast; 13.4 µM with HT29 colon; 15.9 µM in the test on DU-145 prostate; 23 µM in the test on TK-10 renal. The GI50 in the test on HCT-116 colon was 2.18 µM; with A498 renal, 18.6 µM; in the test with M14 melanoma it was 12.6 µM; with A549 NSCLC, 10.5 µM. Further, the TGI in the test on PC-3 prostate worked out at 47.2 µM; in the test on CAKI-1 renal, 29.7 µM; with HS 578T breast, 42.8 µM; in the test on HT29 colon, 40.3 µM; with DU-145 prostate it was 33.4 µM; with TK-10 renal, 50.1 µM. In addition, the TGI in the test on HCT-116 colon stood at 7.58 µM; in the test on A498 renal, 42 µM; with M14 melanoma it was 37.6 µM; with A549 NSCLC, 38.1 µM.
Regarding `CCOC(=O)CCSC1=CC(=O)c2nc3ccccc3c3ccnc1c23`, the GI50 in the test with PC-3 prostate is 13.5 µM; in the test with CAKI-1 renal it was 16.3 µM; in the test with HS 578T breast, 32.8 µM; with HT29 colon, 26.2 µM; in the test on DU-145 prostate, 16 µM; with TK-10 renal it was 16.7 µM. For the same compound, the GI50 was 17.1 µM in the test on HCT-116 colon, greater than 100 µM in the test with A498 renal, 11.3 µM in the test on M14 melanoma and 18.3 µM with A549 NSCLC. Also, the TGI with PC-3 prostate is 38.7 µM; in the test with CAKI-1 renal, 31.9 µM; with HS 578T breast, greater than 100 µM; with HT29 colon, 53.8 µM; in the test with DU-145 prostate, 33.2 µM; with TK-10 renal it was 32.4 µM. Moreover, the TGI in the test on HCT-116 colon is 76.6 µM; in the test on A498 renal it was greater than 100 µM; in the test on M14 melanoma, 30.1 µM; with A549 NSCLC, 77.4 µM.
Consider `O=C(Nc1cc2cc([N+](=O)[O-])ccc2oc1=O)c1cccs1`, for which the TGI with PC-3 prostate, in the test on CAKI-1 renal, in the test with HS 578T breast, with HT29 colon, in the test with DU-145 prostate and in the test on TK-10 renal was greater than 100 µM each time. In addition, the TGI in the test with HCT-116 colon, in the test with A498 renal, in the test with M14 melanoma and with A549 NSCLC was greater than 100 µM in each case.
Take `NCCCNc1nc2ccccc2c2c(=O)c3cc(F)cc(Cl)c3sc12`: the GI50 with PC-3 prostate is 1.76 µM; in the test on CAKI-1 renal it was 1.58 µM; in the test with HS 578T breast it was 1.68 µM; in the test on HT29 colon, 1.75 µM; in the test with DU-145 prostate it was 1.72 µM; in the test on TK-10 renal, 1.91 µM. In addition, the GI50 in the test on HCT-116 colon was 1.72 µM; in the test with A498 renal it was 2.11 µM; in the test on M14 melanoma, 1.78 µM; in the test with A549 NSCLC, 1.8 µM. For the same compound, the TGI in the test with PC-3 prostate worked out at 3.35 µM; with CAKI-1 renal, 2.95 µM; in the test on HS 578T breast, 3.62 µM; with HT29 colon, 3.29 µM; with DU-145 prostate, 3.17 µM; in the test with TK-10 renal, 3.39 µM. Further, the TGI was 3.12 µM in the test with HCT-116 colon, 7.04 µM in the test on A498 renal, 3.28 µM with M14 melanoma and 3.55 µM with A549 NSCLC.
For `NC(Cc1c[nH]c2cccc(F)c12)C(=O)O` (centres undefined), the TGI in the test with PC-3 prostate is greater than 4500 µM; with CAKI-1 renal, greater than 4500 µM; in the test on HS 578T breast it was greater than 4500 µM; in the test with HT29 colon, 2620 µM; with DU-145 prostate, greater than 4500 µM; in the test with TK-10 renal, greater than 4500 µM. Also, the TGI with HCT-116 colon is 1000 µM; in the test with A498 renal, 3670 µM; with M14 melanoma it was greater than 4500 µM; with A549 NSCLC, greater than 4500 µM. In addition, the GI50 was 1080 µM in the test with CAKI-1 renal; 62.9 µM and 501 µM in the test on HS 578T breast; 36.5 µM and 300 µM with HT29 colon; 32 µM and 297 µM in the test on DU-145 prostate; 1220 µM with TK-10 renal; 43.8 µM and 305 µM in the test with HCT-116 colon. Besides, the GI50 was 1150 µM in the test with A498 renal; 59.9 µM and 590 µM with M14 melanoma; 98.7 µM and 679 µM in the test on A549 NSCLC.
